Tested on: Pan HDAC (HeLa Nuclear Extract)
Experiment: Pan HDAC assay (Enzo Fluor-de-Lys fluorometric kit, HeLa Nuclear Extract)
Assay type: biochemical
Experimental: The Pan HDAC assays described herein were performed as follows:
Materials: Enzo Fluor-de-Lys HDAC fluorometric activity assay kit; 360 nm excitation 460 nm emission Plate Reader; Disposable pipettes; Pipet-aid; Pipette tips; Micro-pipetter; DMSO; Sterile micro-tubes and conical tubes; and Micro-centrifuge.
Test compounds and control preparation: All test compounds' stock solutions were made in 100% DMSO. Test compound dilutions were made in HDAC Assay buffer with a final concentration of DMSO less than or equal to 1%. Vehicle control was HDAC Assay buffer with 1% DMSO.
The reagents for the assay were prepared as follows:
1. All kit components were defrosted and these, and all dilutions described below, were kept on ice until use. All undiluted kit components are stable for several hours on ice.
2. A sufficient amount of HeLa Nuclear Extract (BML-KI140) or other HDAC source diluted in Assay Buffer (BML-KI143) was prepared to provide for the assays that were performed (# of wells×15 μl). A 30-fold dilution of the HeLa Extract means that 15 μL contains 0.5 μl of the undiluted Extract, an appropriate amount to use per well.
3. Dilution(s) of SAHA and/or Test Inhibitors were prepared in Assay Buffer (BML-K1143). Since 10 μl were used per well, and since the final volume of the HDAC reaction was 50 μl, these inhibitor dilutions were 5× their final concentration.
4. Dilution(s) of the Fluor de Lys® Substrate (BML-KI104; 50 mM) were prepared in Assay Buffer (BML-K1143) that were 2× the desired final concentration(s). For inhibitor screening, substrate concentrations at or below the Km are recommended. Twenty-five μL were used per well. Initial dilutions of 25-fold or greater in Assay Buffer (2.0 mM or less) yielded stable solutions (see NOTE on freezing and thawing below). Rapid mixing and dilution into room temperature buffer helped to prevent precipitation at high substrate concentration. […]
6. Samples were read in a microtiter-plate reading fluorimeter capable of excitation at a wavelength in the range 350-380 nm and detection of emitted light in the range 440-460 nm.

| SMILES | EC50 (FIG. 4) [µM] | inhibitor activity in the pan-HDACs assays (between 5 μM and 15 μM, FIGS. 2 to 4) | IC50 (Example 6, FIG. 18, 2 mg/mL formulation in 5% DMSO/40% PEG 400/55% PBS, read-out: IC50 against the PAN HDAC) [µM] |
| --- | --- | --- | --- |
| O=C(CCCCCCC(=O)NC1CCC(=O)NC1=O)NO (stereo not drawn) [SP-2-59, N^1-(2,6-dioxopiperidin-3-yl)-N^8-hydroxyoctanediamide] | 16.4 | minimal inhibitor activity | – |
| O=C(CCCCCCC(=O)Nc1cccc2c1CN(C1CCC(=O)NC1=O)C2=O)NO (stereo not drawn) [SP-2-93, N^1-(2-(2,6-dioxopiperidin-3-yl)-1-oxoisoindolin-4-yl)-N^8-hydroxyoctanediamide] | – | – | 1.89 |
